Assay results taken from ChEMBL document CHEMBL1201862, “PubChem BioAssay data set” (2004).
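The compound was tested at five concentrations on cells cultured in 96-well plates, with a 48-hour exposure period. GI50 = concentration required for 50% inhibition of growth.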 Calls of active or inactive are those of the source. Cut-off read from the data, not from the text of the source: active = GI50 up to about 1.1 µM and inactive = higher.

What was measured:
Experiment in all cases: DTP human tumour cell line panel, 48 h
HL-60 = test system: HL-60
SF-539 = test system: SF-539
NCI-H460 = test system: NCI-H460
SK-OV-3 = test system: SK-OV-3
HCT-15 = test system: HCT-15
SK-MEL-2 = test system: SK-MEL-2
RPMI-8226 = test system: RPMI-8226
IGROV-1 = test system: IGROV-1
NCI-H23 = test system: NCI-H23
HCC 2998 = test system: HCC 2998
SF-295 = test system: SF-295
UACC-62 = test system: UACC-62
MOLT-4 = test system: MOLT-4
OVCAR-3 = test system: OVCAR-3
HCT-116 = test system: HCT-116

SMILES | GI50 (HL-60) | GI50 (SF-539) | GI50 (NCI-H460) | GI50 (SK-OV-3) | GI50 (HCT-15) [µM] | GI50 (SK-MEL-2) | GI50 (RPMI-8226) | GI50 (IGROV-1) | GI50 (NCI-H23) | GI50 (HCC 2998) | GI50 (SF-295) | GI50 (UACC-62) | GI50 (MOLT-4) | GI50 (OVCAR-3) | GI50 (HCT-116)
O=C1Nc2cc(F)ccc2C1=O | > 100 µM (inactive) | > 100 µM (inactive) | > 100 µM (inactive) | > 100 µM (inactive) | > 100 | > 100 µM (inactive) | > 100 µM (inactive) | > 100 µM (inactive) | > 100 µM (inactive) | > 100 µM (inactive) | > 100 µM (inactive) | > 100 µM (inactive) | > 100 µM (inactive) |  | 
CC12CCC3(OCCO3)C(OC(=O)c3ccccc3)=C1CCC21OCCO1 (centres undefined) | > 100 µM (inactive) | > 100 µM (inactive) | > 100 µM (inactive) | > 100 µM (inactive) | > 100 |  | 71.3 µM (inactive) | > 100 µM (inactive) |  | > 100 µM (inactive) | > 100 µM (inactive) | > 100 µM (inactive) | > 100 µM (inactive) | > 100 µM (inactive) | > 100 µM (inactive)
O=C(O)CCSC(=O)Nc1ccccc1F | > 100 µM (inactive) | > 100 µM (inactive) | > 100 µM (inactive) |  | > 100 | > 100 µM (inactive) | > 100 µM (inactive) |  | > 100 µM (inactive) | > 100 µM (inactive) |  |  | > 100 µM (inactive) | > 100 µM (inactive) | > 100 µM (inactive)
O=C1NC(=O)C(=O)C(c2nc3ccccc3s2)C1=O | > 100 µM (inactive) | > 100 µM (inactive) | > 100 µM (inactive) | > 100 µM (inactive) | > 100 | > 100 µM (inactive) |  | > 100 µM (inactive) | > 100 µM (inactive) | > 100 µM (inactive) | > 100 µM (inactive) | > 100 µM (inactive) | > 100 µM (inactive) | > 100 µM (inactive) | > 100 µM (inactive)
O=C(CC(=O)c1cccc([N+](=O)[O-])c1)C(=O)Nc1nc([N+](=O)[O-])cs1 | > 100 µM (inactive) | > 100 µM (inactive) | > 100 µM (inactive) | > 100 µM (inactive) | 79.6 | > 100 µM (inactive) | 65 µM (inactive) | > 100 µM (inactive) | > 100 µM (inactive) | > 100 µM (inactive) | > 100 µM (inactive) | > 100 µM (inactive) | > 100 µM (inactive) | > 100 µM (inactive) | > 100 µM (inactive)
NC(=O)OCC(COc1ccc(Cl)cc1)OC(=O)c1ccccc1Cl (centres undefined) | 21.9 µM (inactive) | 19.1 µM (inactive) | 16.8 µM (inactive) | > 100 µM (inactive) | 16.4 | 17.3 µM (inactive) | 21.8 µM (inactive) | 25.5 µM (inactive) | 20.5 µM (inactive) | 23.8 µM (inactive) | 25.4 µM (inactive) | 17.2 µM (inactive) | 21 µM (inactive) | 20.3 µM (inactive) | 17 µM (inactive)
CCC(CC)n1cc(C(=O)NC(=O)NCCCCCOC(=O)CCCCCCCCCCC(=O)OCCCCCNC(=O)NC(=O)c2cn(C(CC)CC)c(=O)[nH]c2=O)c(=O)[nH]c1=O | > 100 µM (inactive) | 47.2 µM (inactive) | > 100 µM (inactive) | > 100 µM (inactive) | > 100 |  | > 100 µM (inactive) | > 100 µM (inactive) | > 100 µM (inactive) | > 100 µM (inactive) | > 100 µM (inactive) | > 100 µM (inactive) | > 100 µM (inactive) | > 100 µM (inactive) | > 100 µM (inactive)
NC(=O)CCC(Nc1c2ccccc2[n+]([O-])c2ccccc12)C(=O)O (centres undefined) | 11.1 µM (inactive) |  | 80 µM (inactive) | > 100 µM (inactive) | 46.7 | > 100 µM (inactive) | 18.6 µM (inactive) | > 100 µM (inactive) | 35.6 µM (inactive) | > 100 µM (inactive) | > 100 µM (inactive) | 51.3 µM (inactive) | 55.1 µM (inactive) | 60.1 µM (inactive) | 38.3 µM (inactive)
CC(C)(C)[C@H]1CC[C@@](O)(c2ccccc2)CC1.CC(C)(C)[C@H]1CC[C@](O)(c2ccccc2)CC1 | 16.3 µM (inactive) | 18.1 µM (inactive) | 27 µM (inactive) | 72.8 µM (inactive) | 23.9 | 14.7 µM (inactive) | 21.1 µM (inactive) | 25.9 µM (inactive) | 30.1 µM (inactive) | 26.5 µM (inactive) | 36.4 µM (inactive) | 19.1 µM (inactive) | 15.6 µM (inactive) | 17.2 µM (inactive) | 22.2 µM (inactive)
O=C1/C(=C/c2ccccc2)CNC/C1=C\c1ccccc1 | 0.406 µM (active) | 1.56 µM (inactive) | 1.36 µM (inactive) | 2.22 µM (inactive) | 0.612 | 3.21 µM (inactive) | 0.221 µM (active) | 1.87 µM (inactive) | 1.83 µM (inactive) | 1.87 µM (inactive) | 2.07 µM (inactive) | 1.76 µM (inactive) | 0.429 µM (active) | 1.42 µM (inactive) | 0.184 µM (active)
